Laboratory results published in publication PMC6891756, “Synthesis and Biological Evaluation of Novel Aminochalcones as Potential Anticancer and Antimicrobial Agents” (Molecules, 2019).
Values after ≈ are worked out from the molar mass of the structure shown.

Experiments:
HT-29 = experiment: SRB antiproliferative assay, HT-29; type: cell-based, human; conditions: Homo sapiens, HT-29; SRB, 48 h, 1–100 µg·mL^−1; ND = not detected in the tested concentration range
Protocol: (§1) Anticancer activity was evaluated using the sulforhodamine B assay (SRB) on four different human colon cancer cell lines: HT-29, LS180, LoVo and LoVo/DX and green monkey kidney fibroblasts COS7 (ATCC, Manassas, VA, USA). Cell lines HT-29 and COS7 were cultured in α-MEM medium (IIET PAS, Wrocław, Poland), LS180 in OptiMEM medium (IIET PAS), LoVo and LoVo/DX in mixture of α-MEM and OptiMEM medium (1:1 (v:v)). Each culture medium was supplemented with 10% fetal bovine serum, 2 mM glutamine, 100 μg·mL^−1 penicillin, 100 μg·mL^−1 streptomycin and 0.25 μg·mL^−1 amphotericin (all supplements purchased from Gibco (Paisley, UK). Cells were incubated at 37 °C, 5% CO2 in HeraCELL 150i incubator (Thermo Fisher Scientific, Waltham, MA, USA).
(§2) For the SRB assay, cells were seeded onto 96-well plates (Sarstedt, Nümbrecht, Germany) at a density of 5·10^3/well and cultured overnight as described above. Then, the growth medium was gently removed and replaced with fresh medium, supplemented with aminochalcone derivatives in the concentration ranging from 1 µg·mL^−1 to 100 µg·mL^−1. All stock solutions were prepared in DMSO at a concentration of 10 mg·mL^−1. Cells were incubated for 48 h and then the SRB assay was performed as described previously. Each experiment was performed in quadruplicate. The final results were reported as the IC50 values calculated for three independent experiments. Cisplatin (Acros Organics, Waltham, MA, USA) and doxorubicin (Fisher BioReagents, Waltham, MA, USA) were used as positive controls of the test.

Fusarium linii KB-F1 = experiment: Microbial growth curve screening, F. linii; type: cell-based; conditions: 0.1% (w/v); for ∆OD F. linii: OD at 560 nm, control 1.95; for Lag-phase F. linii: control 13.5 h
Protocol: (§3) The antimicrobial screening tests were performed on two strains of bacteria: E. coli ATCC10536 and S. aureus DSM799, strain of yeast C. albicans DSM1386 and three strains of fungi: F. linii KB-F1, A. alternata CBS1526 and A. niger DSM1957. All microorganisms were obtained from the collection of the Faculty of Biotechnology and Food Microbiology, Wrocław University of Environmental and Life Sciences. The bacteria were cultured in nutrient broth (Biocorp, Warsaw, Poland), yeast and fungi in YM medium (3 g yeast extract, 3 g malt extract, 5 g bacteriological peptone and 10 g of glucose dissolved in 1 L of distilled water). The tests were carried out in 100-well microtiter plates. To each well 280 μL of culture medium, 10 μL of microorganism suspension and 10 μL of aminochalcone (1–18) dissolved in dimethyl sulfoxide (3% (w/v)) were added. The final concentration of the tested compound (1–18) was 0.1% (w/v). Each experiment were performed in 3 replications. The optical density of the cell suspension was measured on Bioscreen C (Automated Growth Curve Analysis System Lab System, Vantaa, Finland) at 560 nm automatically, at regular intervals of 30 min for 2–3 days. Cell cultures were maintained at 28 °C on a continuous shaker. To prepare the growth curves for each strain, the mean values of the absorbance in a function of time were used. The resulting antimicrobial activity was expressed as the increase of optical density (ΔOD) and was compared to that of the control cultures in the medium supplemented with dimethyl sulfoxide and also with reference substances: oxytetracycline (against bacteria), cycloheximide (against yeast) and nystatin (against fungi) (Sigma Aldrich).

[1] = tested on: Aspergillus niger DSM1957; experiment: Microbial growth curve screening, A. niger; type: cell-based; conditions: 0.1% (w/v); for ∆OD A. niger: OD at 560 nm, control 2.14; for Lag-phase A. niger: control 11.0 h
Protocol: as §3

[2] = SRB assay, normal fibroblasts COS7; type: cell-based, green monkey; conditions: green monkey, COS7 kidney fibroblasts (normal cell line), ND = not detected in the tested concentration range
Protocol: as §1, §2

[3] = tested on: Escherichia coli ATCC10536; experiment: MIC evaluation (broth method), E. coli; type: cell-based; conditions: 48–72 h, read-out: Minimal inhibitory concentration E. coli
Protocol: (§4) Sterile 96-well microtiter plates (Sarstedt) with nutrient broth (for bacteria) (Biocorp) or YM medium (for yeast and filamentous fungi) were inoculated with a standardized cell suspension of bacteria and yeast or fungal spores of 10^5 cell·mL^−1, and supplemented with aminochalcones dissolved in DMSO. […] All analysis were conducted in triplicates. The plates were incubated at 30 °C (bacteria and yeast) or 25 °C (filamentous fungi) for 48–72 h. The results were measured with the Spark® Multimode Microplate Reader (Tecan, Männedorf, Switzerland) at a 560 nm wavelength. The minimal inhibitory concentration was defined as the lowest concentration of a tested compound that completely restricted the growth of the microorganism. In order to verify the obtained results, microbial cultures subjected to each concentration of aminochalcone were inoculated onto nutrient agar or YM plates and incubated as described above. The lack of growth on agar plate was a confirmation of the MIC of the tested compound. The resulting MIC values were compared with the reference substances: oxytetracycline (against bacteria), cycloheximide (against yeast) and nystatin (against fungi) (Sigma Aldrich).

LoVo = experiment: SRB antiproliferative assay, LoVo; type: cell-based, human; conditions: Homo sapiens, LoVo, 48 h, 1–100 µg·mL^−1, ND = not detected in the tested concentration range
Protocol: as §1, §2

LS180 = experiment: SRB antiproliferative assay, LS180; type: cell-based, human; conditions: Homo sapiens, LS180, 48 h, 1–100 µg·mL^−1, ND = not detected in the tested concentration range
Protocol: as §1, §2

[4] = tested on: Escherichia coli ATCC10536; experiment: Microbial growth curve screening, E. coli; type: cell-based; conditions: 0.1% (w/v), OD at 560 nm, control 1.61
Protocol: as §3

LoVo/DX = experiment: SRB antiproliferative assay, LoVo/DX; type: cell-based, human; conditions: Homo sapiens, LoVo/DX, 48 h, 1–100 µg·mL^−1, ND = not detected in the tested concentration range
Protocol: as §1, §2

[5] = tested on: Staphylococcus aureus DSM799; experiment: Microbial growth curve screening, S. aureus; type: cell-based; conditions: 0.1% (w/v); for ∆OD S. aureus: OD at 560 nm, control 1.67; for Lag-phase S. aureus: control 2.5 h
Protocol: as §3

[6] = tested on: Alternaria alternata CBS1526; experiment: Microbial growth curve screening, A. alternata; type: cell-based; conditions: 0.1% (w/v); for ∆OD A. alternata: OD at 560 nm, control 1.86; for Lag-phase A. alternata: control 16.5 h
Protocol: as §3

Candida albicans DSM1386 [7] = experiment: Microbial growth curve screening, C. albicans; type: cell-based; conditions: 0.1% (w/v); for ∆OD C. albicans: OD at 560 nm, control 1.58; for Lag-phase C. albicans: control 3.0 h
Protocol: as §3

[8] = tested on: Staphylococcus aureus DSM799; experiment: MIC evaluation (broth method), S. aureus; type: cell-based; conditions: 48–72 h, read-out: Minimal inhibitory concentration S. aureus
Protocol: as §4

Candida albicans DSM1386 [9] = experiment: MIC evaluation (broth method), C. albicans; type: cell-based; conditions: DSM1386, read-out: Minimal inhibitory concentration C. albicans
Protocol: as §4

Compound | IC50 (HT-29) [µg/mL] | melting point [°C] | ∆OD F. linii (Fusarium linii KB-F1) | Lag-phase F. linii (Fusarium linii KB-F1) [h] | ∆OD A. niger [1] | Lag-phase A. niger [1] [h] | IC50 at 48 h [2] [µg/mL] | MIC [3] [µg/mL] | IC50 (LoVo) [µg/mL] | IC50 (LS180) [µg/mL] | ∆OD E. coli [4] | IC50 (LoVo/DX) [µg/mL] | ∆OD S. aureus [5] | Lag-phase S. aureus [5] [h] | ∆OD A. alternata [6] | Lag-phase A. alternata [6] [h] | ∆OD C. albicans (Candida albicans DSM1386 [7]) | Lag-phase C. albicans (Candida albicans DSM1386 [7]) [h] | MIC [8] [µg/mL] | MIC (Candida albicans DSM1386 [9]) [µg/mL]
CCc1ccc(/C=C/C(=O)c2ccccc2N)cc1 [Compound 4, 2′-Amino-4-ethylchalcone] | 3.98 ± 0.03 (≈ 15.8 µM) | 34 to 36 | 1.04 | 7.5 | 0.60 | 30.0 | 9.57 ± 0.52 (≈ 38.1 µM) | 0.5 (≈ 1.99 µM) | 4.77 ± 0.37 (≈ 19 µM) | 5.1 ± 0.65 (≈ 20.3 µM) | 0.0 | 4.78 ± 0.19 (≈ 19 µM) | 0.84 | 32.5 | 0.40 | 26.5 | 0.98 | 6.0 | – | –
CCc1ccc(/C=C/C(=O)c2cccc(N)c2)cc1 [Compound 5, 3′-Amino-4-ethylchalcone] | 3.43 ± 0.05 (≈ 13.6 µM) | – | 0.80 | 8.0 | 0.36 | 25.5 | 4.42 ± 0.27 (≈ 17.6 µM) | 1 (≈ 3.98 µM) | 1.79 ± 0.1 (≈ 7.12 µM) | 4.16 ± 0.12 (≈ 16.6 µM) | 0.0 | 2.35 ± 0.08 (≈ 9.35 µM) | 0.98 | 29.5 | 0.39 | 12.0 | 0.61 | 9.5 | – | –
Nc1cccc(C(=O)/C=C/c2ccc(C(=O)O)cc2)c1 [Compound 8, 3′-Amino-4-carboxychalcone] | 12.3 ± 0.32 (≈ 46.1 µM) | – | 0.45 | 13.0 | 1.11 | 39.0 | 15.9 ± 1.04 (≈ 59.6 µM) | 0.125 (≈ 0.468 µM) | 31.5 ± 0.13 (≈ 118 µM) | 9.22 ± 0.72 (≈ 34.5 µM) | 0.0 | 27.44 ± 0.11 (≈ 103 µM) | 0.0 | – | 1.14 | 26.0 | 0.28 | 23.0 | 0.125 (≈ 0.468 µM) | –
Nc1ccc(C(=O)/C=C/c2ccc(C(=O)O)cc2)cc1 [Compound 9, 4′-Amino-4-carboxychalcone] | 32.4 ± 0.99 (≈ 121 µM) | – | 0.99 | 13.5 | 0.51 | 35.0 | 32 ± 8.11 (≈ 120 µM) | 0.125 (≈ 0.468 µM) | 73.5 ± 0.98 (≈ 275 µM) | 18.4 ± 0.19 (≈ 68.7 µM) | 0.0 | 66.2 ± 1.32 (≈ 248 µM) | 0.35 | 37.0 | 1.12 | 12.5 | 0.97 | 8.5 | – | –
Nc1cccc(C(=O)/C=C/c2ccc(OCc3ccccc3)cc2)c1 [Compound 14, 3′-Amino-4-benzyloxychalcone] | 7.54 ± 0.18 (≈ 22.9 µM) | 115 to 120 | – | 6.0 | – | 20.5 | 7.61 ± 0.43 (≈ 23.1 µM) | 0.0625 (≈ 0.19 µM) | – | 6.51 ± 0.62 (≈ 19.8 µM) | 0.0 | 5.19 ± 0.41 (≈ 15.8 µM) | – | 33.5 | – | 12.0 | – | 4.5 | – | –
Nc1ccc(C(=O)/C=C/c2ccc(OCc3ccccc3)cc2)cc1 [Compound 15, 4′-Amino-4-benzyloxychalcone] | 7.83 ± 0.14 (≈ 23.8 µM) | – | 0.50 | 11.5 | 0.57 | 25.0 | 13.4 ± 2.78 (≈ 40.6 µM) | 0.125 (≈ 0.379 µM) | 7.64 ± 0.53 (≈ 23.2 µM) | 8.23 ± 0.49 (≈ 25 µM) | 0.0 | 6.66 ± 0.48 (≈ 20.2 µM) | 0.22 | 8.0 | 1.04 | 19.5 | 0.37 | 16.0 | – | –
COc1cc(/C=C/C(=O)c2ccc(N)cc2)ccc1OCc1ccccc1 [Compound 18, 4′-Amino-4-benzyloxy-3-methoxychalcone] | 5.01 ± 0.49 (≈ 13.9 µM) | – | 0.41 | 6.5 | 0.65 | 28.5 | – | 0.5 (≈ 1.39 µM) | 3.54 ± 0.3 (≈ 9.85 µM) | 4.59 ± 0.29 (≈ 12.8 µM) | 0.0 | – | 0.26 | 33.5 | 0.22 | 21.5 | 0.68 | 4.5 | – | –
COc1cccc2c1C(=O)c1c(O)c3c(c(O)c1C2=O)C[C@@](O)(C(=O)CO)C[C@@H]3O[C@H]1C[C@H](N)[C@H](O)[C@H](C)O1 [Compound 20, Doxorubicin, reference compound] | 0.33 ± 0.02 (≈ 0.607 µM) | – | – | – | – | – | 3.55 ± 1.15 (≈ 6.53 µM) | – | 0.73 ± 0.18 (≈ 1.34 µM) | 0.05 ± 0.02 (≈ 0.092 µM) | – | 5.32 ± 1.44 (≈ 9.79 µM) | – | – | – | – | – | – | – | –
C[C@@H]1C[C@@H]([C@H](O)CC2CC(=O)NC(=O)C2)C(=O)[C@@H](C)C1 [Cycloheximide, reference compound] | – | – | – | – | – | – | – | – | – | – | – | – | – | – | – | – | 0.0 | – | – | 0.5 (≈ 1.78 µM)
CN(C)[C@@H]1C(O)=C(C(N)=O)C(=O)[C@@]2(O)C(O)=C3C(=O)c4c(O)cccc4[C@@](C)(O)[C@H]3[C@H](O)[C@@H]12 [Oxytetracycline, reference compound] | – | – | – | – | – | – | – | 0.5 (≈ 1.09 µM) | – | – | 0.0 | – | 0.0 | – | – | – | – | – | 0.125 (≈ 0.271 µM) | –
